Measurements published in patent US7259172B2, “Inhibitors of β-lactamase” (priority 1999, dated 2007).
Structures can show the parent of a compound that is named as a salt. Where two headings read alike, the source gives them in different places.

Legend:
[1] = biological target: P99 β-lactamase (class C) (Enterobacter cloacae, UniProt P05364); assay: biochemical
Protocol: Enzyme activity against the commercially available substrate, nitrocefin, was measured in the presence of various inhibitor concentrations. The P99 β-lactamase enzyme (1 mg/mL) was dissolved in 20 mM MOPS buffer at pH 7.50, and diluted 200-fold in the same buffer containing 0.1% BSA. Nitrocefin was stored as a 100 μM stock solution in 20 mM MOPS at pH 7.5. Stock solutions of test compounds were prepared in 10 mM MOPS at pH 7.5 (approximately 1 mg/mL)
The reaction at 25° C. was followed spectrophotometrically at 482 nm. IC50 values were determined from the dose-response plots of the initial rates vs. inhibitor concentration

[2] = test system: Enterobacter cloacae [ATCC #23355]; type: cell-based; conditions: ratio antibiotic MIC without/with inhibitor
Description: An increasing number of organisms produce enzymes that inhibit the actions of β-lactam antibiotics, so-called β-lactamases. […] The Minimum Inhibitory Concentration (MIC) test determines the lowest concentration of an antibiotic at which no visible bacterial growth occurs. This test permits comparisons to be made between bacterial growth in the presence of antibiotic alone (control) and bacterial growth in the presence of both an antibiotic and a novel (test) compound.
(§1) Frozen bacterial stocks were thawed to room temperature, and a few drops were placed on an appropriate plate; chocolate agar was used for H. influenzae, blood agar was used for all others. The plates were incubated overnight at 37° C. in air, except for H. influenzae, which was incubated in a CO2 incubator. The cultures were subcultured the following day, and the subcultures were again incubated overnight
A sterile loop was touched to 3 colonies and used to inoculate 1 mL of Mueller-Hinton Broth (MHB). […] 5 μL of the resultant inoculum solution contained ˜4×10^4 CFU/mL. Confirmation of the inoculum was performed by preparing a serial dilution to give 100 μL of a 5000-fold dilution, all of which was then plated onto an appropriate plate.
Each plate included 2 wells with no bacterial inoculum (negative control) and 2 wells with no test compound and no antibiotic (positive control). The plate was covered and incubated with gentle shaking for 16-20 hours at 37° C. in air (CO2 for H. influenzae). Absorbance was read at 540 nm (Multiskan Titertek mcc/340). Bacterial growth was scored as follows:
(§2) In some cases, the determination of MIC in the presence of test compound was performed at more than one concentration of the test compound.
The impact of the novel β-lactamase inhibitors is expressed as the ratio of the MIC determined in the absence of β-lactamase inhibitor to the MIC determined in the presence of the specified concentration of the β-lactamase inhibitor test compound.

[3] = test system: Staphylococcus aureus [MGH:MA #50848]; assay: Antibiotic MIC in presence and absence of β-lactamase inhibitor (synergy); type: cell-based; conditions: ratio antibiotic MIC without/with inhibitor; inhibitor 10 μg/mL
Description: (§3) An increasing number of organisms produce enzymes that inhibit the actions of β-lactam antibiotics, so-called β-lactamases. The “strength” of β-lactam antibiotics can be improved by pairing them with compounds that inhibit bacterial enzyme β-lactamases. The Minimum Inhibitory Concentration (MIC) test determines the lowest concentration of an antibiotic at which no visible bacterial growth occurs. This test permits comparisons to be made between bacterial growth in the presence of antibiotic alone (control) and bacterial growth in the presence of both an antibiotic and a novel (test) compound.
(§4) • β-lactamase positive strains • β-lactam antibiotics • β-lactamase inhibitor compounds • appropriate bacterial growth medium β-Lactamase Positive Strains • Klebsiella oxytoca [ATCC#51983] • Staphylococcus aureus [MGH: MA#50848] • Enterococcus faecalis [ATCC#49757] • Enterobacter cloacae [ATCC#23355] • Haemophilus influenzae [ATCC#43163] β-Lactam antibiotics
as §1
(§5) A sterile loop was touched to 3 colonies and used to inoculate 1 mL of Mueller-Hinton Broth (MHB). The bacterial solution was diluted 18.8-fold (20 μL of bacterial solution in […] of broth). 5 μL of the resultant inoculum solution contained ˜4×10^4 CFU/mL. Confirmation of the inoculum was performed by preparing a serial dilution to give 100 μL of a 5000-fold dilution, all of which was then plated onto an appropriate plate. After incubation overnight at 37° C., the plate had 75-150 colonies.
(§6) In each well of a 96-well microtiter plate was combined 5 μL of bacterial inoculum, 90 μL of antibiotic dilutions, and 5 μL of test compound (or media for determination of the MIC of the antibiotic in the absence of test compound). Each plate included 2 wells with no bacterial inoculum (negative control) and 2 wells with no test compound and no antibiotic (positive control). The plate was covered and incubated with gentle shaking for 16-20 hours at 37° C. in air (CO2 for H. influenzae). Absorbance was read at 540 nm (Multiskan Titertek mcc/340). Bacterial growth was scored as follows:
as §2
(§7) The impact of the novel β-lactamase inhibitors is expressed as the ratio of the MIC determined in the absence of β-lactamase inhibitor to the MIC determined in the presence of the specified concentration of the β-lactamase inhibitor test compound. […]

[4] = test system: Haemophilus influenzae [ATCC #43163]; assay: as above; type: cell-based; conditions: ratio antibiotic MIC without/with inhibitor; inhibitor 10 μg/mL
Description: as §3, §4, §1, §5, §6, §2, §7

[5] = physchem
[6] = Table 1
[7] = Class C β-lactamase [P99], Table 1, read-out: IC50 (μM) “C”

Chain of P99 β-lactamase (class C) (P05364 21-381): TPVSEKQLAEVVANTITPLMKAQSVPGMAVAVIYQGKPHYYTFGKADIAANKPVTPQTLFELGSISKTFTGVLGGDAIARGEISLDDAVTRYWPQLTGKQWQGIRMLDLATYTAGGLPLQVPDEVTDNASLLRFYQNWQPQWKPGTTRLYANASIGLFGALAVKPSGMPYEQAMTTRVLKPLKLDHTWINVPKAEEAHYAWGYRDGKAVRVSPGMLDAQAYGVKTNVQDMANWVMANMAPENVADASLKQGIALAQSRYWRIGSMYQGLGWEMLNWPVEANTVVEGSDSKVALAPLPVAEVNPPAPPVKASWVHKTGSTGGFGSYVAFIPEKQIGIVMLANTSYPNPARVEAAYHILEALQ

Compound | IC50 [1] [µM] | Synergy Class C E. Cl ([2]; inhibitor 10 μg/mL) | Synergy Class A H. In. [4] | other results
N.O=[N+]([O-])c1ccc(OP(=O)(O)C(Cc2ccccc2)NS(=O)(=O)c2cccs2)cc1 (centres unmarked) [Compound 44, [2-Phenyl-1-(thiophene-2-sulfonylamino)-ethyl]-phosphonic acid mono-(4-nitrophenyl) ester ammonium salt] | 192 | 2/2 | 1 | Synergy Class C E. Cl ([2]; inhibitor 1 μg/mL): 2/2; Synergy Class A St. A. [3]: 1
N.O=P(O)(Oc1cccnc1Cl)C(Cc1ccccc1)NS(=O)(=O)c1cccs1 (centres unmarked) [Compound 46, [2-Phenyl-1-(thiophene-2-sulfonylamino)-ethyl]-phosphonic acid mono-(2-chloropyridin-3-yl) ester ammonium salt] | 188 | 1/1 | 1 | Synergy Class C E. Cl ([2]; inhibitor 1 μg/mL): 1/1; Synergy Class A St. A. [3]: 1
CN(CP(=O)(O)Oc1ccc([N+](=O)[O-])cc1)S(=O)(=O)c1cccs1.N [Compound 47, [(2-Thiophenesulfonyl-N-methylamino)methyl]-phosphonic acid mono-(4-nitrophenyl) ester ammonium salt] | 276 | 2 | 1 | 
CC(C)C(NS(=O)(=O)c1cccs1)P(=O)(O)Oc1ccc([N+](=O)[O-])cc1 (centres unmarked) [Compound 52, [2-Methyl-1-thiophene-2-sulfonylamino)-propyl]-phosphonic acid mono-(4-nitrophenyl) ester ammonium salt] | 1400 | 4 | 1 | Synergy Class C E. Cl ([2]; inhibitor 1 μg/mL): 2; Synergy Class A St. A. [3]: 1
N.O=[N+]([O-])c1ccc(OP(=O)(O)C(NS(=O)(=O)c2cccs2)c2ccccc2)cc1 (centres unmarked) [Compound 53, [Phenyl-(thiophene-2-sulfonylamino)-methyl]-phosphonic acid mono-(4-nitrophenyl) ester ammonium salt] | 363 | 2/2 | 1 | Synergy Class C E. Cl ([2]; inhibitor 1 μg/mL): 2/2; Synergy Class A St. A. [3]: 1
CC(C)C(NS(=O)(=O)c1cccs1)P(=O)(O)Oc1cccnc1Cl.N (centres unmarked) [Compound 54, [2-Methyl-1-(thiophene-2-sulfonylamino)-propyl]-phosphonic acid mono-(2-chloropyridin-3-yl) ester ammonium salt] | 1800 | 2 | 1 | Synergy Class C E. Cl ([2]; inhibitor 1 μg/mL): 1; Synergy Class A St. A. [3]: 1
N.O=P(O)(Oc1cccnc1Cl)C(NS(=O)(=O)c1cccs1)c1ccccc1 (centres unmarked) [Compound 60, [Phenyl-(thiophene-2-sulfonylamino)-methyl]-phosphonic acid mono-(2-chloropyridin-3-yl) ester ammonium salt] | 603 | 2 | 1 | Synergy Class C E. Cl ([2]; inhibitor 1 μg/mL): 1; Synergy Class A St. A. [3]: 1
CN(CP(=O)(O)Oc1ccc([N+](=O)[O-])cc1)S(=O)(=O)c1cc2ccccc2s1.N [Compound 142, [(2-Benzothiophenesulfonyl-N-methylamino)-methyl]-phosphonic acid mono-(4-nitrophenyl) ester ammonium salt] | 1300 | 2 |  | logP [5]: -0.091
O=[N+]([O-])c1ccc(OP(=O)(O)CN(Cc2ccccc2)S(=O)(=O)c2cc3ccccc3s2)cc1 [Compound 145, (2-Benzothiophenesulfonyl-N-benzylamino)-methyl]-phosphonic acid mono-(4-nitrophenyl) ester ammonium salt] | 94 | 4 |  | logP [5]: 0.86
O=[N+]([O-])c1ccc(OP(=O)(O)CNS(=O)(=O)c2ccccc2)cc1 [compound 7] | 4 |  |  | 
O=[N+]([O-])c1ccc(OP(=O)(O)CNS(=O)(=O)c2ccc([N+](=O)[O-])cc2)cc1 [compound 12] | 10 |  |  | 
O=[N+]([O-])c1ccc(OP(=O)(O)CNS(=O)(=O)c2cccs2)cc1 [compound 15] | 18 |  |  | 
O=[N+]([O-])c1ccc(OP(=O)(O)CNS(=O)(=O)c2ccccc2Br)cc1 [compound 23] | 14 |  |  | 
O=[N+]([O-])c1ccc(OP(=O)(O)CNS(=O)(=O)c2ccccn2)cc1 [compound 31] | 136 |  |  | 
O=P(O)(CNS(=O)(=O)c1cccs1)Oc1cccc(Cl)c1 [compound 48] | 189 |  |  | 
O=P(O)(CNS(=O)(=O)c1ccsc1)Oc1cccnc1 [compound 55] | 3600 |  |  | 
O=[N+]([O-])c1ccc(OP(=O)(O)CNS(=O)(=O)c2cc3ccccc3s2)cc1 [compound 77] | 0.4 |  |  | 
CN(C)c1cccc(OP(=O)(O)CNS(=O)(=O)c2cccs2)c1 [compound 78] | 3000 |  |  | 
O=[N+]([O-])c1ccc(OP(=O)(O)NNS(=O)(=O)c2ccccc2)cc1 [compound 189] |  |  |  | IC50 [1, 7]: 62 µM
[(2-Benzothiophenesulfonyl-N-ethylamino)-methyl]-phosphonic acid mono-(4-nitrophenyl) ester ammonium salt [Compound 144] |  |  |  | IC50 [1, 7]: 463 µM; Log P [6]: −0.036
[(2-Benzothiophenesulfonyl-N-phenylethylamino)-methyl]-phosphonic acid mono-(4-nitrophenyl) ester ammonium salt [Compound 143] |  |  |  | IC50 [1, 7]: 133 µM; Log P [6]: 1.17
